Assay results published in US11884661B2, “3-substituted propionic acids as αV integrin inhibitors” (BRISTOL-MYERS SQUIBB COMPANY, priority 2016, dated 2024).

These compounds were tested against T1, human αVβ6 (Homo sapiens, UniProt P06756+P18564) (assay: human αVβ6 HTRF binding assay). Conditions: recombinant human αVβ6 integrin, FITC-conjugated fibronectin.
T1 construct: purchased R & D systems 3817-AV
Description: All binding assays used the HTRF (homogeneous time resolved fluorescence) technology from Cisbio International, therefore all assays are described as HTRF binding assays. The assay results for the Examples are listed above together with the characterization data. The HTRF binding assays are established for the following integrins: human αVβ6, human αVβ1, human αVβ3, human αVβ5, and human αVβ8. All assays used the following assay buffer: 20 mM Tris, pH 7.4, 1 mM MgCl2, 1 mM MnCl2, 0.01% Tween 20, and 0.01% BSA. Alternatively, a SPA-based assay was used for evaluation of receptor binding.
The following describes the components and a representative procedure for the human αVβ6 HTRF binding assay: Recombinant human αVβ6 Integrin (R & D systems, 3817-AV) was biotinylated. Biotinylated human αVβ6 Integrin was added to assay vessel at a final concentration of 1.25 nM. FITC-conjugated fibronectin (Cytoskeleton, FNR02) was then added at the final concentration of 5 nM. The mixture was centrifuged at 600 rpm for three minutes using Thermo Fisher Heraeus Multifuge X3 centrifuge and then incubated at RT for an hour. Streptavidin Terbium (Cisbio international 610STLB) was then added at the final concentration of 0.625 nM. The resulting mixture was centrifuged at 600 rpm for three minutes using Thermo Fisher Heraeus Multifuge X3 centrifuge and then incubated at room temperature overnight in dark before reading HTRF signals.

T1 sequence (P06756 31-992 limits assumed): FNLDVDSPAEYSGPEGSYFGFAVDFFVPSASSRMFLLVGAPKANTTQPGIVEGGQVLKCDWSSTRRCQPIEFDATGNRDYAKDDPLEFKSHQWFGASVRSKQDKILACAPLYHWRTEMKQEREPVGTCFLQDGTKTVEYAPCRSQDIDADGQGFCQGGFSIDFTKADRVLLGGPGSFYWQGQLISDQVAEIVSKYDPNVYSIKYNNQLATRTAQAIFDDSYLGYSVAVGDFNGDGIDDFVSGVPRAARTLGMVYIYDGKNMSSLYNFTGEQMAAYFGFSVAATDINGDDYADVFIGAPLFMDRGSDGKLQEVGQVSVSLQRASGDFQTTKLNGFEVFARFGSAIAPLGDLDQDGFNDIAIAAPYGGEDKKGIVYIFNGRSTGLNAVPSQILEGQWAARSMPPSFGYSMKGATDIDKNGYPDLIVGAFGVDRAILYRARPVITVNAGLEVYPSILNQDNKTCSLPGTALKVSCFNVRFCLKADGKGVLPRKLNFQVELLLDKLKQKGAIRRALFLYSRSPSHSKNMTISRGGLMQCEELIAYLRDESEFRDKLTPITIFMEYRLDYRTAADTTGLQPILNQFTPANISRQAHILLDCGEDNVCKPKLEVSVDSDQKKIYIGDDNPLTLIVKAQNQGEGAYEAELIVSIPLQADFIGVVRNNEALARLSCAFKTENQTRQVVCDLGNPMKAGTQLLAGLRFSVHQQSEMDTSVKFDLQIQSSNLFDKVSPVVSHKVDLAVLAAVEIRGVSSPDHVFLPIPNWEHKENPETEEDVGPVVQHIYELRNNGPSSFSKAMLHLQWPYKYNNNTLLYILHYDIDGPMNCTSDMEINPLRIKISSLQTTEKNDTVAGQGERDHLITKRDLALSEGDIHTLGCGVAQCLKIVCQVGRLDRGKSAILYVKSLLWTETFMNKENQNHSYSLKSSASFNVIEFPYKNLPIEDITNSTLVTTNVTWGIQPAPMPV
T1 sequence (P18564 22-707 limits assumed): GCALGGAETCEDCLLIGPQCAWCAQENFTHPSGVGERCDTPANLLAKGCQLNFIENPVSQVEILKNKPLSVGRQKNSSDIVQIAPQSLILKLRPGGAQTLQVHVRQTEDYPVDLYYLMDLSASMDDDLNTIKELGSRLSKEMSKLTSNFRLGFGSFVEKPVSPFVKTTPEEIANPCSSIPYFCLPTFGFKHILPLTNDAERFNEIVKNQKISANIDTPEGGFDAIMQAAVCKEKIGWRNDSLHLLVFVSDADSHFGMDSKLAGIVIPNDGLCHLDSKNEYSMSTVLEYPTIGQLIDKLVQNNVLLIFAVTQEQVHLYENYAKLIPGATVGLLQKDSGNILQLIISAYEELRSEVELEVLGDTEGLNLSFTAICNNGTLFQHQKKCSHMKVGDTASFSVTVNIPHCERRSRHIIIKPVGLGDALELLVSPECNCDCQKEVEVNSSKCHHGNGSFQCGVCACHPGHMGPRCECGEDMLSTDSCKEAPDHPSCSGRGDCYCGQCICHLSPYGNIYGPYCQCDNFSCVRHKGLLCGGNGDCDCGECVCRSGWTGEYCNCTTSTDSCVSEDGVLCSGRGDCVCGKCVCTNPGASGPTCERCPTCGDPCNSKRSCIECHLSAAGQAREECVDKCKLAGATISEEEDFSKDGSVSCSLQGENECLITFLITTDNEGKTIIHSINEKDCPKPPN

IC50	SMILES
36 nM	COc1ccc(C(CC(=O)O)c2nc(CCCc3ccc4c(n3)NCCC4)cs2)cn1 (single isomer, unassigned) [Example 16, 3-(6-Methoxypyridin-3-yl)-3-(4-(3-(5,6,7,8-tetrahydro-1,8-naphthyridin-2-yl)propyl)thiazol-2-yl)propanoic acid]
64 nM	COc1ccc([C@H](CC(=O)O)c2cnn(CCCc3ccc4c(n3)NCCC4)c2)cn1 [Example 8, (A)-3-(6-Methoxypyridin-3-yl)-3-(1-(3-(5,6,7,8-tetrahydro-1,8-naphthyridin-2-yl)propyl)-1H-pyrazol-4-yl)propanoic acid]
210 nM	COc1ccc(C(CC(=O)O)c2nc(CCCC3CCc4cccnc4N3)cs2)cn1 (single isomer, unassigned) [Example 154, 3-(6-methoxypyridin-3-yl)-3-(4-(3-(1,2,3,4-tetrahydro-1,8-naphthyridin-2-yl)propyl)thiazol-2-yl)propanoic acid]
230 nM	O=C(O)CC(c1cncc(N2CCOCC2)c1)n1nccc1CCCc1ccc2c(n1)NCCC2 (single isomer, unassigned) [Example 95, 3-(5-morpholinopyridin-3-yl)-3-(5-(3-(5,6,7,8-tetrahydro-1,8-naphthyridin-2-yl)propyl)-1H-pyrazol-1-yl)propanoic acid]
5000 nM	O=C(NC(Cc1cnn(CCc2ccc3c(n2)NCCC3)c1)C(=O)O)OCc1ccccc1 (racemic) [Example 5, (±)-2-(((Benzyloxy)carbonyl)amino)-3-(1-(2-(5,6,7,8-tetrahydro-1,8-naphthyridin-2-yl)ethyl)-1H-pyrazol-4-yl)propanoic acid]
2.9 nM	CCOc1ncc(C(CC(=O)O)c2nc(CCCCc3ccc4c(n3)NCCC4)cs2)cn1 (single isomer, unassigned) [Example 130, 3-(2-ethoxypyrimidin-5-yl)-3-(4-(4-(5,6,7,8-tetrahydro-1,8-naphthyridin-2-yl)butyl)thiazol-2-yl)propanoic acid]
1380 nM	Cc1ncc(C(CC(=O)O)n2nccc2CCC[C@H]2CCc3cccnc3N2)cn1 (stereo partly drawn) [Example 87, 3-(2-methylpyrimidin-5-yl)-3-(5-(3-((S)-1,2,3,4-tetrahydro-1,8-naphthyridin-2-yl)propyl)-1H-pyrazol-1-yl)propanoic acid]
45 nM	Cc1ncc(C(CC(=O)O)n2ccc(CCCc3ccc4c(n3)NCCCC4)n2)cn1 (single isomer, unassigned) [Example 97, 3-(2-methylpyrimidin-5-yl)-3-(3-(3-(6,7,8,9-tetrahydro-5H-pyrido[2,3-b]azepin-2-yl)propyl)-1H-pyrazol-1-yl)propanoic acid]
28 nM	O=C(O)CC(c1cc(Cl)cc(Cl)c1)n1nccc1CCCc1ccc2c(n1)NCCC2 (racemic) [Example 75, (±)-3-(3,5-dichlorophenyl)-3-{5-[3-(5,6,7,8-tetrahydro-1,8-naphthyridin-2-yl)propyl]-1H-pyrazol-1-yl}propanoic acid]
3.5 nM	O=C(O)C[C@@H](c1ccc(OCC2CC2)nc1)n1ccc(CCCc2ccc3c(n2)NCCC3)n1 [Example 112, (S)-3-(6-(cyclopropylmethoxy)pyridin-3-yl)-3-(3-(3-(5,6,7,8-tetrahydro-1,8-naphthyridin-2-yl)propyl)-1H-pyrazol-1-yl)propanoic acid]
300 nM	O=C(O)CCCNc1cc(C(CC(=O)O)n2nccc2CCCc2ccc3c(n2)NCCC3)ccn1 (racemic) [Example 79, (±)-4-{[4-(2-carboxy-1-{5-[3-(5,6,7,8-tetrahydro-1,8-naphthyridin-2-yl)propyl]-1H-pyrazol-1-yl}ethyl)pyridin-2-yl]amino}butanoic acid]
6.4 nM	COc1ccc(C(CC(=O)O)n2ccc(CCCc3ccc4c(n3)NCCCC4)n2)cn1 (racemic) [Example 100, (±)-3-(6-methoxypyridin-3-yl)-3-(3-(3-(6,7,8,9-tetrahydro-5H-pyrido[2,3-b]azepin-2-yl)propyl)-1H-pyrazol-1-yl)propanoic acid]
117 nM	COc1ccc(C(CC(=O)O)c2cnn(CCCc3ccc4c(n3)NCCC4)c2)cc1F (racemic) [Example 24, (±)-3-(3-Fluoro-4-methoxyphenyl)-3-(1-(3-(5,6,7,8-tetrahydro-1,8-naphthyridin-2-yl)propyl)-1H-pyrazol-4-yl)propanoic acid]
5500 nM	O=C(O)CC(c1cnc2ccccc2n1)n1ccc(CCCc2ccc3c(n2)NCCC3)n1 (racemic) [Example 28, (±)-3-(Quinoxalin-2-yl)-3-(3-(3-(5,6,7,8-tetrahydro-1,8-naphthyridin-2-yl)propyl)-1H-pyrazol-1-yl)propanoic acid]
19 nM	O=C(O)C[C@@H](c1ccc(=O)n(CC2CC2)c1)n1ccc(CCCc2ccc3c(n2)NCCC3)n1 [Example 111, (S)-3-(1-(cyclopropylmethyl)-6-oxo-1,6-dihydropyridin-3-yl)-3-(3-(3-(5,6,7,8-tetrahydro-1,8-naphthyridin-2-yl)propyl)-1H-pyrazol-1-yl)propanoic acid]
100 nM	COc1ncc([C@H](CC(=O)O)n2ccc(CCC[C@H]3CCc4cccnc4N3)n2)cn1 [Example 89, (S)-3-(2-methoxypyrimidin-5-yl)-3-(3-(3-((S)-1,2,3,4-tetrahydro-1,8-naphthyridin-2-yl)propyl)-1H-pyrazol-1-yl)propanoic acid]
310 nM	COc1ncc([C@@H](CC(=O)O)n2ccc(CCCc3ccc4c(n3)NCCC4)n2)cn1 [Example 83, (R)-3-(2-methoxypyrimidin-5-yl)-3-(3-(3-(5,6,7,8-tetrahydro-1,8-naphthyridin-2-yl)propyl)-1H-pyrazol-1-yl)propanoic acid]
460 nM	COc1ccc(C(CC(=O)O)c2ncc(CCCCc3ccc4c(n3)NCCC4)n2C)cn1 (single isomer, unassigned) [Example 164, 3-(6-methoxypyridin-3-yl)-3-(1-methyl-5-(4-(5,6,7,8-tetrahydro-1,8-naphthyridin-2-yl)butyl)-1H-imidazol-2-yl)propanoic acid]
76 nM	CN(C)C(=O)c1cccc(C(CC(=O)O)c2nc(CCCCc3ccc4c(n3)NCCC4)cs2)c1 (single isomer, unassigned) [Example 117, 3-(3-(dimethylcarbamoyl)phenyl)-3-(4-(4-(5,6,7,8-tetrahydro-1,8-naphthyridin-2-yl)butyl)thiazol-2-yl)propanoic acid]
195 nM	COc1ccc(C(CC(=O)O)c2nc(CCCC3CCc4cccnc4N3)cs2)cc1F (single isomer, unassigned) [Example 160, 3-(3-fluoro-4-methoxyphenyl)-3-(4-(3-(1,2,3,4-tetrahydro-1,8-naphthyridin-2-yl)propyl)thiazol-2-yl)propanoic acid]
71 nM	Cc1cc(C)n(C(CC(=O)O)c2nc(CCCc3ccc4c(n3)NCCC4)cs2)n1 (single isomer, unassigned) [Example 162, 3-(3,5-dimethyl-1H-pyrazol-1-yl)-3-(4-(3-(5,6,7,8-tetrahydro-1,8-naphthyridin-2-yl)propyl)thiazol-2-yl)propanoic acid]
1.8 nM	COCCOc1cncc(C(CC(=O)O)n2ccc(CCCc3ccc4c(n3)NCCC4)n2)c1 (single isomer, unassigned) [Example 80, 3-(5-(2-methoxyethoxy)pyridin-3-yl)-3-(3-(3-(5,6,7,8-tetrahydro-1,8-naphthyridin-2-yl)propyl)-1H-pyrazol-1-yl)propanoic acid]
